{"source": "patent US11149277B2", "about": "“Method of producing enriched exosomes” (National Health Research Institutes, priority 2016, dated 2021)", "key": {"[1]": {"tested_on": "mesenchymal stem cells (MSCs)", "assay": "Osteogenic, adipogenic and neural differentiation of MSCs", "type": "cell-based", "settings": "GW-treated MSCs", "experimental": "(A) and (B) show osteogenic differentiation of MSCs and EP4 antagonist GW-treated MSCs. MSCs were cultured in osteogenic differentiation medium and then stained with Alizarin Red S. Osteogenic differentiation was quantified by measuring the optical density (OD) of Alizarin Red S staining. […] MSCs were cultured in adipogenic differentiation medium. […] MSCs were cultured in neural differentiation medium for 7 or 14 days and then analyzed for the expression of neuronal marker tublin β3 and NeuN using western blotting.\nGW-treated MSCs were cultured in osteogenic differentiation medium, adipogenic differentiation medium and neuron differentiation medium, respectively."}, "NAMECs": {"tested_on": "NAMECs", "assay": "NanoSight Nanoparticle Tracking Analysis of CM-P4 fractions of NAMEC culture", "type": "cell-based, human", "text": "FIG. 1 includes a TEM image and a graph. (A) is a TEM image of the P4 medium fraction of NAMECs treated with GW627368X (GW) for 4 days. Scale bar, 1 μm. (B) is a graph showing the number of particles in the CM-P4 fractions of NAMEC culture counted by using NanoSight Nanoparticle Tracking analysis. Top panel: Quantification of exosome release is shown as the ratio of [P4 GAPDH marker level]/[cell number]. Data are means±SEM (n=3). *P≤0.05. **P≤0.005. Bottom table: Quantification of exosome release is shown as the number of particles of the CM-P4 fractions released per cell measured by nanoparticle tracking analysis.\nThe isolated human mammary epithelial stem cells (NAMECs) were cultured in mammary epithelial cell basal medium (250 ml MCDB-170, 250 ml DMEM-F12, 1.2 g sodium bicarbonate, 2.5 μg EGF, 0.25 mg Hydrocortisone, 2.5 mg insulin, 35 mg BPE) with or without containing EP4 antagonist, i.e., GW627368X (GW) at 1 μg/ml, or AH23848 (AH) at 4 μg/ml, for 4 days. The culture medium was supplied with 0.5 μg/ml of GW or 2 μg/ml of AH23848 at the third day of the culturing period. For the induction of EP4 antagonist-induced exosomes from mouse mammary epithelial cells, cells were cultured in a medium containing 10 μg/ml of GW for 4 days.\nThe culture media were centrifuged at 300 g for 5 min to remove cells (P1), at 2,000 g for 20 min (P2), then at 10,000 g for 30 min (P3) all at 4° C. Dead cells and cell debris were removed at 300 g (P1) and 1200 g (P2). Finally, exosomes (P4) were separated from the supernatant by centrifugation at 110,000 g for 60 min. The P4 exosome pellet was washed once in PBS and then re-suspended in PBS for further application."}}, "data": [{"smiles": "CCOc1c2c(c(OCC)c3ccccc13)C(=O)N(c1ccc(CC(=O)NS(=O)(=O)c3ccccc3)cc1)C2", "note": "[GW627368X]", "values": [{"measurement": "abilities to differentiate into osteoblasts, adipocytes or nerve cells vs non-treated MSCs", "setting": "[1]", "result": "much lowered"}, {"measurement": "concentration of released membrane vesicles", "setting": "NAMECs; CM-P4 fraction, 4 days, PGE2 1 μM", "result": "~5.4×10^4 particle/cell"}, {"measurement": "release of membrane vesicles compared to untreated and PGE2-treated NAMECs", "setting": "NAMECs; particle numbers in CM-P4", "result": "significantly triggered the release of membrane vesicles"}]}]}
